Article PMC3062577, “Purification and biochemical properties of a cytochrome bc complex from the aerobic hyperthermophilic archaeon Aeropyrum pernix” (BMC Microbiology, 2011)

Experiments:
[1] = target: T1, cytochrome c553 complex (cytochrome bc complex) (Aeropyrum pernix, UniProt Q9YB72+Q9YB73+Q9YB78); test: spectrophotometric menaquinol oxidation / yeast cytochrome c reduction; format: biochemical; conditions: acceptor yeast cytochrome c; pH 7.0, 40 °C, 0.2 mM menaquinol-1 (menaquinol oxidase assay); 0.1% DDM
T1 construct: gene soxC; native complex purified from A. pernix K1 membranes in DDM; 80 kDa on BN-PAGE; subunits 40, 30 and 25 kDa; only the 25-kDa subunit identified by mass (21,344)
T1 sequence (Q9YB72 1-571): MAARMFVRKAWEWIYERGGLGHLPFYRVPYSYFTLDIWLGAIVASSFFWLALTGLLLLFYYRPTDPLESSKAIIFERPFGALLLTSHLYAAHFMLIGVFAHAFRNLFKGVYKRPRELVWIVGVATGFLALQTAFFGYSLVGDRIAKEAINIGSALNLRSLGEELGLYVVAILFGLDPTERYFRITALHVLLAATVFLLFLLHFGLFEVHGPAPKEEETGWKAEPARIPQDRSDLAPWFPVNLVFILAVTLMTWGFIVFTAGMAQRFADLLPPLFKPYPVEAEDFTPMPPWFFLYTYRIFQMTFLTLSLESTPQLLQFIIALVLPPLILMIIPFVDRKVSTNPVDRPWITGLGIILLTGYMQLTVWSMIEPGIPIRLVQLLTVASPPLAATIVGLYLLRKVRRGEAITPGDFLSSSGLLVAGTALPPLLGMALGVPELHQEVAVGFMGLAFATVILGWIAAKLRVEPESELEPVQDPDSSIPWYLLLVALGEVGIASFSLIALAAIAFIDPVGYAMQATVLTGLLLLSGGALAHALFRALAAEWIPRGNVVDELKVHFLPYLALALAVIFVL
T1 sequence (Q9YB73 34-265): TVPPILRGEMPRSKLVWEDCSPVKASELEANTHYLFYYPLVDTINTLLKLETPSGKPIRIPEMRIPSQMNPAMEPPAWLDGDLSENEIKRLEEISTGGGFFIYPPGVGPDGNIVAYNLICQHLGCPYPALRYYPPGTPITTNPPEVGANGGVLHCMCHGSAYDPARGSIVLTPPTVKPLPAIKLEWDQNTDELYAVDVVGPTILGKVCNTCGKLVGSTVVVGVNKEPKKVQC
T1 sequence (Q9YB78 1-190): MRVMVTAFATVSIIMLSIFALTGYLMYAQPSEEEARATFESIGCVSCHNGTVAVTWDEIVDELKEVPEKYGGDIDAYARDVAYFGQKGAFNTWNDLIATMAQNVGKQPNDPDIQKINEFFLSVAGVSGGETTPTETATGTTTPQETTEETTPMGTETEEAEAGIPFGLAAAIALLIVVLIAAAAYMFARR

[2] = target: T2, cytochrome oa3 oxidase (Aeropyrum pernix, UniProt Q9YDX6+Q9YDX7); test: spectrophotometric TMPD oxidation at […] nm; format: biochemical; conditions: 25 mM TMPD, 0.1 M NaCl, 50 mM NaPi pH 6.5, 40 °C; without added cytochrome c553
T2 construct: gene aoxB; native, partially purified from A. pernix K1 membranes in DDM; 140 kDa on BN-PAGE; bands 74, 40 and 25 kDa (25 kDa = cytochrome c553); assigned to AoxA/AoxB by size only; aoxABC = APE_0792.1, APE_0793.1, APE_0795.1
T2 sequence (Q9YDX6 whole entry): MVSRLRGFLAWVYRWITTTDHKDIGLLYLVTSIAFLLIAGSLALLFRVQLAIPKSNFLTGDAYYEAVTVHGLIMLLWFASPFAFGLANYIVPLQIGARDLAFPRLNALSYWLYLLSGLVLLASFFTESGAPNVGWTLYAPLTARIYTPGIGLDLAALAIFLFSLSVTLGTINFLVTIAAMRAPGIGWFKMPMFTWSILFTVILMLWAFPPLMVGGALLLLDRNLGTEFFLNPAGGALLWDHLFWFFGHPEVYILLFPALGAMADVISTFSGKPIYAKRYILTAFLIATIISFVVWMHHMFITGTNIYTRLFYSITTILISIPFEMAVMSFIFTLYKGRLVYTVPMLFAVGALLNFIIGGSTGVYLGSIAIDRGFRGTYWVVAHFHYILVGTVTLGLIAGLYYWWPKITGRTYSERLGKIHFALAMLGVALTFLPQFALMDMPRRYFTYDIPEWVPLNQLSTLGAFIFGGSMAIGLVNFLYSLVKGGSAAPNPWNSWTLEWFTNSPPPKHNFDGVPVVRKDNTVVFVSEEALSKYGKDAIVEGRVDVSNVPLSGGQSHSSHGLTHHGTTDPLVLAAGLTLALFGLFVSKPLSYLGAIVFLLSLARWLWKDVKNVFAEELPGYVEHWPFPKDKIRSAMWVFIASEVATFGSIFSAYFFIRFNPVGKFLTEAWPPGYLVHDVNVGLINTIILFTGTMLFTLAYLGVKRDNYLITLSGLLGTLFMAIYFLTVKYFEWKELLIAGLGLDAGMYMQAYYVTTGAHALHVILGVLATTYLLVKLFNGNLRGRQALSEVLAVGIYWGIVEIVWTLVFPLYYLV
T2 sequence (Q9YDX7 whole entry): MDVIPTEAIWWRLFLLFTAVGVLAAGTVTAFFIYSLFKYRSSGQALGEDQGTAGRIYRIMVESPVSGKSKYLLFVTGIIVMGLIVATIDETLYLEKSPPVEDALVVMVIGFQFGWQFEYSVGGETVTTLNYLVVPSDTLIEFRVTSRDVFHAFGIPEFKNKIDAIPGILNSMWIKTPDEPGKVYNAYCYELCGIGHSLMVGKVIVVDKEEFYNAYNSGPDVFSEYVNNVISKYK
T2 sequence (Q9YDX4 whole entry partner): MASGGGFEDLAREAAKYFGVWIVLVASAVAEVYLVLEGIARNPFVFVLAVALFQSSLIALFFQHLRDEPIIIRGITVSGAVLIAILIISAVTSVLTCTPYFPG

Compound	spectrophotometric menaquinol oxidation / yeast cytochrome c reduction [1]	spectrophotometric TMPD oxidation at 562 nm [2]
CC(C)=CCc1c(C)c(O)c2ccccc2c1O [menaquinol-1]	cytochrome c553 oxidized menaquinol and reduced yeast cytochrome c	–
CN(C)c1ccc(N(C)C)cc1 [TMPD, N,N,N',N'-tetramethyl-p-phenylenediamine]	–	The isolated cytochrome oa3 oxidase had TMPD and yeast cytochrome c oxidation activity
